Measured values published in paper PMC6694100, “The complex of ferric-enterobactin with its transporter from Pseudomonas aeruginosa suggests a two-site model” (Nature Communications, 2019).
Several values for one entry are separate records, joined by “and”; a condition that tells them apart may be missing. Equal entries are not always repeated.

Columns and labels:
[1] = system: ∆pfeA(pMMBpfeA) cells (native PfeA); test: 55Fe-enterobactin binding and uptake assay, ∆pfeA(pMMBpfeA); type: cell-based, Pseudomonas aeruginosa; details: cells not treated with CCCP, 500 nM ^55Fe-enterobactin, 30 min
Protocol: (§1) Fig. 6 Effects of PfeA mutation in vivo. a Analysis of changes in the transcription of pfeA gene. PAO1 strain, its corresponding deletion mutant ∆pfeA and deletion mutants carrying the expression plasmid of PfeA wild-type (∆pfeA(pMMBpfeA) or the R480A-Q482A mutant (∆pfeA(pMMBpfeAR480AQ482A)) were grown in CAA medium supplemented with 10 µM enterobactin. The data were normalised relative to the reference gene uvrD, and are representative of three independent experiments performed in triplicate (n = 3). The results are given as a ratio between the values obtained for ∆pfeA, ∆pfeA(pMMBpfeA) and ∆pfeA(pMMBpfeAR480AQ482A) over those obtained for the PAO1 strain. b ^55Fe-enterobactin binding at the bacterial surface. Cells were grown as in panel a, and were incubated for 15 min with 200 µM CCCP before initiation of transport assays by the addition of 500 nM ^55Fe-enterobactin. After 30 min incubation, the radioactivity accumulated in the bacteria was counted. The results are expressed as pmol of ^55Fe-enterobactin bound per ml of cells at an OD600 of 1. The experiments have been repeated three times. c ^55Fe-enterobactin binding and uptake. Cells were grown as in panel a, and were incubated with or without 200 µM CCCP before initiation of transport assays by the addition of 500 nM ^55Fe-enterobactin. After 30 min incubations, the radioactivity accumulated in the bacteria was counted. The results are expressed as pmol of ^55Fe-enterobactin bound and transported per ml of cells at an OD600 of 1. The experiments have been repeated three times
(§2) The complex was prepared at ^55Fe concentrations of 50 μM, with a siderophore:iron (mol:mol) ratio of 20:1. P. aeruginosa strains were first grown overnight at 30 °C in LB broth, and were then washed, resuspended and cultured overnight at 30 °C in iron-deficient CAA medium (casamino acid medium, composition: 5 g.l^−1 low-iron CAA (Difco), 1.46 g.l^−1 K2HPO4 3H2O, 0.25 g.l^−1 MgSO4 7H2O) and in the presence of 10 µM enterobactin to induce the expression of PfeA. CAA is a highly iron-restricted medium with iron concentrations of 20 nM[59]. Afterwards bacteria were washed with 50 mM Tris-HCl pH 8.0, and diluted to an OD600 of 1. Cells solutions were divided in two, one batch being treated with 200 μM CCCP. This compound collapses the proton-motive force across the bacterial cell membranes, inhibiting TonB-dependent iron uptake. Binding and transport assays were initiated by adding 500 nM ^55Fe-enterobactin to the bacterial solutions treated or not with CCCP. After 30 min of incubations, cells were centrifuged, and the radioactivity associated to the bacteria was monitored in the cell pellets. For the cells treated with CCCP, the radioactivity in the cell pellets corresponds to the binding of ^55Fe-enterobactin to P. aeruginosa cell surface, since no uptake occurs. In the absence of CCCP, the radioactivity associated to the cells corresponds to ^55Fe-enterobactin binding to the cell surface and the uptake into the bacteria.

[2] = system: ∆pfeA(pMMBpfeAR480AQ482A) cells (double-mutant PfeA); test: 55Fe-enterobactin binding and uptake assay, ∆pfeA(pMMBpfeAR480AQ482A); type: cell-based, Pseudomonas aeruginosa; details: 500 nM ^55Fe-enterobactin, 30 min
Protocol: as §1, §2

[3] = system: pfeA gene; test: RT-qPCR of pfeA gene transcription in strains grown with 10 µM enterobactin; type: cell-based, Pseudomonas aeruginosa; details: replicate values, Figure 6a
Protocol: Fig. 6 Effects of PfeA mutation in vivo. a Analysis of changes in the transcription of pfeA gene. PAO1 strain, its corresponding deletion mutant ∆pfeA and deletion mutants carrying the expression plasmid of PfeA wild-type (∆pfeA(pMMBpfeA) or the R480A-Q482A mutant (∆pfeA(pMMBpfeAR480AQ482A)) were grown in CAA medium supplemented with 10 µM enterobactin. The data were normalised relative to the reference gene uvrD, and are representative of three independent experiments performed in triplicate (n = 3). The results are given as a ratio between the values obtained for ∆pfeA, ∆pfeA(pMMBpfeA) and ∆pfeA(pMMBpfeAR480AQ482A) over those obtained for the PAO1 strain. b ^55Fe-enterobactin binding at the bacterial surface. Cells were grown as in panel a, and were incubated for 15 min with 200 µM CCCP before initiation of transport assays by the addition of 500 nM ^55Fe-enterobactin. After 30 min incubation, the radioactivity accumulated in the bacteria was counted. The results are expressed as pmol of ^55Fe-enterobactin bound per ml of cells at an OD600 of 1. The experiments have been repeated three times. c ^55Fe-enterobactin binding and uptake. Cells were grown as in panel a, and were incubated with or without 200 µM CCCP before initiation of transport assays by the addition of 500 nM ^55Fe-enterobactin. After 30 min incubations, the radioactivity accumulated in the bacteria was counted. The results are expressed as pmol of ^55Fe-enterobactin bound and transported per ml of cells at an OD600 of 1. The experiments have been repeated three times […]
Specific pfeA gene transcription was measured by reverse transcription-quantitative PCR (RT-qPCR) from 16 h cultures in CAA medium as described in Supplementary Methods. […]
The supernatant […]
was discarded, and inner membrane proteins were solubilized in lysis buffer with 1% (w/v) N-lauroylsarkosine (Sigma-Aldrich). […]
Quantitative real-time PCR. […] The amounts of specific cDNA were assessed in a StepOne Plus instrument (Applied Biosystems) by using a Power Sybr Green PCR Master Mix […]

[4] = parameters: method as in doi:10.1021/ja00514a037, PMID 12453412; details: cited from earlier work

## O=C(N[C@H]1COC(=O)[C@@H](NC(=O)c2cccc(O)c2O)COC(=O)[C@@H](NC(=O)c2cccc(O)c2O)COC1=O)c1cccc(O)c1O [Enterobactin, enterobactin]
[1]
  ^55Fe-enterobactin binding and uptake: actively taken up
[2]; CCCP treated cells (200 µM)
  ^55Fe-enterobactin binding at the bacterial surface: does not bind
[2]; cells not treated with CCCP
  ^55Fe-enterobactin binding and uptake: not competent for the uptake
[3]; strain ΔpfeA (pMMBpfeA R480AQ482A)
  pfeA gene transcription (RT-qPCR): 105.534 and 104.018 and 99.7495 and 101.79 and 78.5683 and 111.303 and 100.693 and 97.5736 and 107.445
[3]; strain ΔpfeA (pMMBpfeA)
  pfeA gene transcription (RT-qPCR): 181.293 and 171.592 and 180.688 and 175.586 and 141.721 and 155.679 and 152.232 and 181.628 and 183.778
[3]; strain ΔpfeA
  pfeA gene transcription (RT-qPCR): 0.006806 and 0.03712 and 0.02449 and 0.03211 and 0.01571 and 0.01618 and 0.0116 and 0.02148 and 0.01134
[4]
  stability when not bound to iron: easily degraded
